This is an account of results in patent US7989589B2, “Compstatin analogs with improved activity” (The Trustees Of The University Of Pennsylvania, priority 2002, dated 2011).

In assay [1] the test system is heparin/protamine-induced complement activation. To be noted: primates; cited from earlier work.
For assay [2], the system named is alternative pathway-mediated erythrocyte lysis. To be noted: cited from earlier work.
Assay [3] relates to porcine-to-human xenograft. To be noted: porcine-to-human xenograft perfused with human blood; cited from earlier work.
The subject of assay [4] is complement activation. To be noted: cardio-pulmonary bypass, plasmapheresis, dialysis models; cited from earlier work.
The test system of assay [5] is complement activation in human serum. To be noted: cited from earlier work.
For assay [6], the system named is activation of the complement system by immunocomplexes (C3 fixation). The assay can be described thus: Complement inhibition assay: inhibition of C3 fixation (C3b/iC3b deposition) to ovalbumin-anti-ovalbumin complexes in normal human plasma. It counts as biochemical. To be noted: complement-inhibiting activity.
Experimental: Complement activation inhibition was assessed by measuring the inhibition of C3 fixation to ovalbumin—anti-ovalbumin complexes in normal human plasma. Microtiter wells were coated with 50 μl of ovalbumin (10 mg/ml) for 2 hr at 25° C. (overnight at 4° C.). The wells were saturated with 200 μl of 10 mg/ml BSA for 1 hr at 25° C. and then a rabbit anti-ovalbumin antibody was added to form an immunocomplex by which complement can be activated. Thirty microliters of peptides at various concentrations were added directly to each well followed by 30 μl of a 1:80 dilution of human plasma. After 30 min incubation, bound C3b/iC3b was detected using a goat anti-human C3 BRP-conjugated antibody. Color was developed by adding ABTS peroxidase substrate and optical density measured at 405 nm. The concentration of the peptide causing 50% inhibition of C3b/iC3b deposition was taken as the IC50 and used to compare the activities of various peptides.
The subject of assay [7] is complement activation. To be noted: in vivo animal models; cited from earlier work.

As a reminder, the IC50 is the concentration that inhibits the measured activity by half.

As for `CC[C@H](C)[C@H](N)C(=O)N[C@H]1CSSC[C@@H](C(=O)N[C@H](C(N)=O)[C@@H](C)O)NC(=O)[C@H](CCCN=C(N)N)NC(=O)[C@H](Cc2cnc[nH]2)NC(=O)[C@H](Cc2cnc[nH]2)NC(=O)CNC(=O)[C@H](Cc2c[nH]c3ccccc23)NC(=O)[C@H](CC(=O)O)NC(=O)[C@H](CCC(N)=O)NC(=O)[C@H](C(C)C)NC(=O)[C@H](C(C)C)NC1=O` [Compstatin], in assay [1], the “inhibition of heparin/protamine-induced complement activation” value is “inhibit heparin/protamine-induced complement activation in primates without significant side effects”. In addition, in assay [2], the IC50 is 12 µM. Besides, in assay [3], the lifetime of xenograft result is recorded as “prolong the lifetime of a porcine-to-human xenograft perfused with human blood”. Moreover, the “inhibition of complement activation in extra-corporeal circuit models” value in assay [4] is “inhibit complement activation in models of cardio-pulmonary bypass, plasmapheresis, and dialysis extra-corporeal circuits”. The “inhibition of complement activation in human serum” value in assay [5] was “inhibit complement activation in human serum”.
For “Ac-ICVWQDWGAHRCdT-COOH [Ac- 4W, 9A13dT —OH]”, in assay [6], the “activity compared with another peptide (in words)” value was “activity equal to that of peptide SEQ ID NO:5”.
As for “sCR1: recombinant form of complement receptor 1 known as soluble complement receptor 1”, the “suppression of complement activation” value in assay [7] is “suppress complement activation in in vivo animal models”.
